The results in this text go back to patent US20240101546A1, “HETEROARYL-ACETYLENES, PHARMACEUTICAL COMPOSITIONS THEREOF, AND THEIR THERAPEUTIC APPLICATIONS” (Eubulus Biotherapeutics Inc., priority 2020, published 2024).

The subject of this experiment is hepatocellular carcinoma cell line Hub-7. Put plainly: Cell proliferation assay, Hub-7 (CELL-TITER GLO). As to conditions: Hub-7 cells, 24 h incubation, cell viability by CELL-TITER GLO, top concentration 10 μM; read-out: EC50, Inhibition of Hub-7 Cell Proliferation. It counts as cell-based. On the procedure: The activity of a compound was determined in a cell proliferation assay using the hepatocellular carcinoma cell line Hub-7. Cells (4,000 cells per well) were seeded in a 96-well tissue culture plate. After incubated overnight, the compound was added at predetermined concentrations, starting with 10 μM and followed by 3-fold serial dilution. After the cells were incubated for 24 h, cell viability was determined using a CELL-TITER GLO® assay. The CELL-TITER GLO® reagent (50 μL) was added to each well and the luminescence was measured by a multimode microplate reader after a brief period of shaking. EC50 values were determined for the compound. The results are summarized in Table 1, wherein A represents a value no greater than 200 nM, B represents a value greater than 200 nM but no greater than 1 μM, C represents a value greater than 1 μM but no greater than 5 μM, and D represents a value greater than 5 μM.

Where only a bound is given, the exact number is not on record here.

As to `C#Cc1nc(NC(=O)NCc2ccc(-c3cccc4c3S(=O)(=O)C=C4)cc2)cs1` [Compound A1, 1-(4-(1,1-Dioxidobenzo[b]thiophen-7-yl)benzyl)-3-(2-ethynylthiazol-4-yl)urea], the EC50 was in the range of 200 to 1000 nM.

In the case of `C#Cc1nc(NC(=O)NCc2ccc(-c3cccc4c3S(=O)(=O)CC4O)cc2)cs1` (stereo not shown) [Compound A2, 1-(2-Ethynylthiazol-4-yl)-3-(4-(3-hydroxy-1,1-dioxido-2,3-dihydrobenzo[b]-thiophen-7-yl)benzyl)urea], the EC50 was 1000 to 5000 nM.

For the compound `C#Cc1nc(NC(=O)NCc2ccc(-c3cccc4c3S(=O)(=O)CC4=O)cc2)cs1` [Compound A3, 1-(4-(1,1-Dioxido-3-oxo-2,3-dihydrobenzo[b]thiophen-7-yl)benzyl)-3-(2-ethynyl-thiazol-4-yl)urea], the EC50 fell in the range of 1000 to 5000 nM.

In the case of `C#Cc1nc(NC(=O)NCc2ccc(-c3cc4ncsc4c4c3CNC4=O)cc2)cs1` [Compound A4, 1-(2-Ethynylthiazol-4-yl)-3-(4-(8-oxo-7,8-dihydro-6H-thiazolo[5,4-e]isoindol-5-yl)benzyl)urea], the EC50 was in the range of 200 to 1000 nM.

For the compound `C#Cc1nc(NC(=O)NCc2ccc(-c3cccc(N4CC[C@H](O)C4)c3)cc2)cs1` [Compound A5, (S)-1-(2-Ethynylthiazol-4-yl)-3-((3′-(3-hydroxypyrrolidin-1-yl)-[1,1′-biphenyl]-4-yl)methyl)urea], the EC50 fell in the range of 200 to 1000 nM.

In the case of `C#Cc1nc(NC(=O)NCc2ccc(-c3cccc4ncsc34)cc2)cs1` [Compound A6, 1-(4-(benzo[d]thiazol-7-yl)benzyl)-3-(2-ethynylthiazol-4-yl)urea], the EC50 was at most 200 nM.

Take `C#Cc1nc(NC(=O)NCc2ccc(-c3cccc(N4CCCC4)c3)cc2)cs1` [Compound A7, 1-(2-Ethynylthiazol-4-yl)-3-((3′-(pyrrolidin-1-yl)-[1,1′-biphenyl]-4-yl)methyl)urea]: the EC50 was at most 200 nM.

For `C#Cc1nc(NC(=O)NCc2ccc(-c3ccccc3)cc2)cs1` [Compound A8, 1-([1,1′-Biphenyl]-4-ylmethyl)-3-(2-ethynylthiazol-4-yl)urea], the EC50 was at most 200 nM.

Regarding `C#Cc1nc(NC(=O)NCc2ccc(-c3cccc4ncnc(O)c34)cc2)cs1` [Compound A9, 1-(2-Ethynylthiazol-4-yl)-3-(4-(4-hydroxyquinazolin-5-yl)benzyl)urea], the EC50 was at most 200 nM.

Turning to `C#Cc1nc(NC(=O)NCc2ccc(-c3cccc(C(N)=O)c3)cc2)cs1` [Compound A10, 4′-((3-(2-Ethynylthiazol-4-yl)ureido)methyl)-[1,1′-biphenyl]-3-carboxamide], the EC50 fell in the range of 200 to 1000 nM.

As to `C#Cc1nc(NC(=O)NCc2ccc(-c3cccc4ncn(C)c(=O)c34)cc2)cs1` [Compound A11, 1-(2-Ethynylthiazol-4-yl)-3-(4-(3-methyl-4-oxo-3,4-dihydroquinazolin-5-yl)-benzyl)urea], the EC50 lay in the range of 200 to 1000 nM.

Regarding `C#Cc1nc(NC(=O)NCc2ccc(-c3cc4ncsc4cc3F)cc2)cs1` [Compound A12, 1-(2-Ethynylthiazol-4-yl)-3-(4-(6-fluorobenzo[d]thiazol-5-yl)benzyl)urea], the EC50 was 200 to 1000 nM.

For `C#Cc1nc(NC(=O)NCc2ccc(-c3ccccc3S(=O)(=O)NC)cc2)cs1` [Compound A13, 4′-((3-(2-Ethynylthiazol-4-yl)ureido)methyl)-N-methyl-[1,1′-biphenyl]-2-sulfonamide], the EC50 lay within 200 to 1000 nM.

With `C#Cc1nc(NC(=O)NCc2ccc(-c3cccc(C(=O)NC)c3)cc2)cs1` [Compound A14, 4′-((3-(2-Ethynylthiazol-4-yl)ureido)methyl)-N-methyl-[1,1′-biphenyl]-3-carboxamide], the EC50 fell in the range of 200 to 1000 nM.

`C#Cc1nc(NC(=O)NCc2ccc(-c3c(C)ccc4c3cnn4C)cc2)cs1` [Compound A15, 1-(4-(1,5-Dimethyl-1H-indazol-4-yl)benzyl)-3-(2-ethynylthiazol-4-yl)urea]: the EC50 was at most 200 nM.

As for `C#Cc1nc(NC(=O)NCc2ccc(-c3cccc4c3cnn4C)cc2)cs1` [Compound A16, 1-(2-Ethynylthiazol-4-yl)-3-(4-(1-methyl-1H-indazol-4-yl)benzyl)urea], the EC50 is at most 200 nM.

As for `C#Cc1nc(NC(=O)NCc2ccc(-c3c(C(=O)NC)ccc4ncsc34)cc2)cs1` [Compound A17, 7-(4-((3-(2-Ethynylthiazol-4-yl)ureido)methyl)phenyl)-N-methylbenzo[d]-thiazole-6-carboxamide], the EC50 was 1000 to 5000 nM.

Take `C#Cc1nc(NC(=O)NCc2ccc(-c3cccc4ccnc(O)c34)cc2)cs1` [Compound A18, 1-(2-Ethynylthiazol-4-yl)-3-(4-(1-hydroxyisoquinolin-8-yl)benzyl)urea]: the EC50 lay within 200 to 1000 nM.

Turning to `C#Cc1nc(NC(=O)NCc2ccc(-c3c(C(N)=O)ccc4ncsc34)cc2)cs1` [Compound A19, 7-(4-((3-(2-Ethynylthiazol-4-yl)ureido)methyl)phenyl)benzo[d]thiazole-6-carboxamide], the EC50 was 200 to 1000 nM.

`C#Cc1nc(NC(=O)NCc2ccc(-c3cc(C(N)=O)cc4c3cnn4C)cc2)cs1` [Compound A20, 4-(4-((3-(2-Ethynylthiazol-4-yl)ureido)methyl)phenyl)-1-methyl-1H-indazole-6-carboxamide]: the EC50 lay in the range of 1000 to 5000 nM.

In the case of `C#Cc1nc(NC(=O)NCc2ccc(-c3cc(C(=O)NC)cc4c3cnn4C)cc2)cs1` [Compound A21, 4-(4-((3-(2-Ethynylthiazol-4-yl)ureido)methyl)phenyl)-N,1-dimethyl-1H-indazole-6-carboxamide], the EC50 lay within 200 to 1000 nM.

As to `C#Cc1nc(NC(=O)NCc2ccc(-c3cc(C(=O)OC)cc4c3cnn4C)cc2)cs1` [Compound A22, Methyl 4-(4-((3-(2-ethynylthiazol-4-yl)ureido)methyl)phenyl)-1-methyl-1H-indazole-6-carboxylate], the EC50 was at most 200 nM.

Turning to `C#Cc1nc(NC(=O)NCc2ccc(-c3cc(C(=O)N(C)C)cc4c3cnn4C)cc2)cs1` [Compound A23, 4-(4-((3-(2-Ethynylthiazol-4-yl)ureido)methyl)phenyl)-N,N,1-trimethyl-1H-indazole-6-carboxamide], the EC50 fell in the range of 200 to 1000 nM.

With `C#Cc1nc(NC(=O)N2CCCC2c2ccc(-c3cccc4ncsc34)cc2)cs1` (stereo not shown) [Compound B1, 2-(4-(Benzo[d]thiazol-7-yl)phenyl)-N-(2-ethynylthiazol-4-yl)pyrrolidine-1-carboxamide], the EC50 was 200 to 1000 nM.

On to `C#Cc1nc(NC(=O)N2CC(c3ccc(-c4cccc5ncsc45)cc3)C2)cs1` [Compound B2, 3-(4-(Benzo[d]thiazol-7-yl)phenyl)-N-(2-ethynylthiazol-4-yl)azetidine-1-carboxamide], for which the EC50 is at most 200 nM.

For the compound `C#Cc1nc(NC(=O)N2CCc3cc(-c4cccc5ncsc45)ccc3C2)cs1` [Compound B3, 6-(Benzo[d]thiazol-7-yl)-N-(2-ethynylthiazol-4-yl)-3,4-dihydroisoquinoline-2(1H)-carboxamide], the EC50 was in the range of 200 to 1000 nM.

As for `C#Cc1nc(NC(=O)N2Cc3ccc(-c4cccc5ncsc45)cc3C2)cs1` [Compound B4, 5-(Benzo[d]thiazol-7-yl)-N-(2-ethynylthiazol-4-yl)isoindoline-2-carboxamide], the EC50 fell in the range of 200 to 1000 nM.

On to `C#Cc1nc(NC(=O)N2CCN(c3ccc(-c4cccc5ncsc45)cc3)CC2)cs1` [Compound B5, 4-(4-(Benzo[d]thiazol-7-yl)phenyl)-N-(2-ethynylthiazol-4-yl)piperazine-1-carboxamide], for which the EC50 is at most 200 nM.
